Assay results reported in US12673933B2, “Aminopyrazine compounds as HPK1 inhibitor and the use thereof” (BEIGENE, LTD., priority 2019, dated 2026).

The molecules below were run against T1, HPK1 kinase (aa1-346, Life Technologies) (Homo sapiens, UniProt Q92918) (assay: HPK Kinase Activity Assay at 1 mM ATP (TR-FRET)). Conditions: HPK1 kinase 40 nM, 0.5 μM STK1 substrate, read-out: Enzymatic activity IC50.
T1 construct: HPK1 kinase (aa1-346, Life Technologies); purchased Life Technologies
T1 sequence (Q92918 1-346): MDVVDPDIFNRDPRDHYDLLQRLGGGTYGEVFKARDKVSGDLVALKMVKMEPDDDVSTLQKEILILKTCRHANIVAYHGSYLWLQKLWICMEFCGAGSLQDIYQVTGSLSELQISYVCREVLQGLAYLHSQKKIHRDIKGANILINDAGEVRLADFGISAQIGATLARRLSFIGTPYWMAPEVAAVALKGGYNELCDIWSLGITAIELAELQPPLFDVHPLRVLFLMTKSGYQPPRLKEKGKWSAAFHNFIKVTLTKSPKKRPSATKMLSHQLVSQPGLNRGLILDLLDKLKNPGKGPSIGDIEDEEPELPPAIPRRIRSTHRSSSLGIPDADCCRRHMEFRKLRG
Format: biochemical
Experimental: HPK Kinase Activity Assay at 1 mM ATP
Compounds disclosed herein were tested for inhibition of HPK1 kinase (aa1-346, Life Technologies) activity in assays based on the time-resolved fluorescence-resonance energy transfer (TR-FRET) methodology. The assays were carried out in 384-well low volume black plates in a reaction mixture containing HPK1 kinase (40 nM), 1 mM ATP, 0.5 μM STK1 substrate and 0-10 μM compound in buffer containing 50 mM HEPES, 0.01% BSA, 0.1 mM Orthovanadate, 10 mM MgCl2, 1 mM DTT, pH=7.0, 0.005% Tween-20. The kinase was incubated with the compounds disclosed herein or DMSO for 60 minutes at room temperature and the reaction was initiated by the addition of ATP and STK1 substrate. After reaction at room temperature for 120 minutes, an equal volume of stop/detection solution was added according to the manufacture's instruction (CisBio). The stop/detection solution contained STK Antibody-Cryptate and XL665-conjugated streptavidin in Detection Buffer. The TR-FRET signals (ratio of fluorescence emission at 665 nm over emission at 620 nm with excitation at 337 nm wavelength) were recorded on a PHERAstar FS plate reader (BMG Labtech). Phosphorylation of STK1 substrate led to the binding of STK Antibody-Cryptate to the biotinylated STK1 substrate, which places fluorescent donor (Eu^3+ crypate) in close proximity to the accepter (Streptavidin-XL665), thus resulting in a high degree of fluorescence resonance energy transfer. The inhibition of HPK1 in presence of increasing concentrations of compounds was calculated based on the ratio of fluorescence at 665 nm to that at 620 nm. The IC50 for each compound was derived from fitting the data to the four-parameter logistic equation by Graphpad Prism software.

Structure (SMILES) | IC50 [nM]
CCn1cc(Oc2nc(-c3cc4c(c(OC)c3)CCN(C)C4)cnc2N)cn1 [Example 274, 3-(1-ethyl-1H-pyrazol-4-yloxy)-5-(5-methoxy-2-methyl-1,2,3,4-tetrahydroisoquinolin-7-yl)pyrazin-2-amine] | 24
CCn1cc(Oc2nc(-c3cc4c(c(NC)c3)CCN(C)C4)cnc2N)cn1 [Example 275, 7-(5-amino-6-(1-ethyl-1H-pyrazol-4-yloxy)pyrazin-2-yl)-N,2-dimethyl-1,2,3,4-tetrahydroisoquinolin-5-amine] | 14
COCCn1cc(Oc2nc(-c3cc(C)c4c(c3)CN(C)CC4)cnc2N)cn1 [Example 276, 5-(2,5-dimethyl-1,2,3,4-tetrahydroisoquinolin-7-yl)-3-((1-(2-methoxyethyl)-1H-pyrazol-4-yl)oxy)pyrazin-2-amine] | 24
Cc1cc(-c2cnc(N)c(Oc3cnn(CCC#N)c3)n2)cc2c1CCN(C)C2 [Example 277, 3-(4-((3-amino-6-(2,5-dimethyl-1,2,3,4-tetrahydroisoquinolin-7-yl)pyrazin-2-yl)oxy)-1H-pyrazol-1-yl)propanenitrile] | 6.5
CCOCCn1cc(Oc2nc(-c3cc(C)c4c(c3)CN(C)CC4)cnc2N)cn1 [Example 278, 5-(2,5-dimethyl-1,2,3,4-tetrahydroisoquinolin-7-yl)-3-((1-(2-ethoxyethyl)-1H-pyrazol-4-yl)oxy)pyrazin-2-amine] | 15
CNCCN(C)C(=O)c1cnn(-c2nc(-c3cc(C)c4c(c3)CN(C)CC4)cnc2N)c1 [Example 279, 1-(3-amino-6-(2,5-dimethyl-1,2,3,4-tetrahydroisoquinolin-7-yl)pyrazin-2-yl)-N-methyl-N-(2-(methylamino)ethyl)-1H-pyrazole-4-carboxamide] | 19
Cc1cc(-c2cnc(N)c(-n3cc(C(=O)N4CCC(F)(F)C4)cn3)n2)cc2c1CCN(C)C2 [Example 281, (1-(3-amino-6-(2,5-dimethyl-1,2,3,4-tetrahydroisoquinolin-7-yl)pyrazin-2-yl)-1H pyrazol-4-yl)(3,3-difluoropyrrolidin-1-yl)methanone] | 56
Cc1cc(-c2cnc(N)c(OCc3ccnc(N)c3O[C@H]3CCOC3)n2)cc2c1CCN(C)C2 [Example 282, (S)-3-((2-amino-3-((tetrahydrofuran-3-yl)oxy)pyridin-4-yl)methoxy)-5-(2,5-dimethyl-1,2,3,4-tetrahydroisoquinolin-7-yl)pyrazin-2-amine] | 6.6
COCCN(C)C(=O)c1cnn(-c2nc(-c3cc(C)c4c(c3)CN(C)CC4)cnc2N)c1 [Example 283, 1-(3-amino-6-(2,5-dimethyl-1,2,3,4-tetrahydroisoquinolin-7-yl)pyrazin-2-yl)-N-(2-methoxyethyl)-N-methyl-1H-pyrazole-4-carboxamide] | 6.3
Cc1cc(-c2cnc(N)c(-n3cc(C(=O)N4CCN(C)CC4)cn3)n2)cc2c1CCN(C)C2 [Example 284, (1-(3-amino-6-(2,5-dimethyl-1,2,3,4-tetrahydroisoquinolin-7-yl)pyrazin-2-yl)-1H-pyrazol-4-yl)(4-methylpiperazin-1-yl)methanone] | 38
Cc1cc(-c2cnc(N)c(-n3cc(C(=O)NCCN4CCCC4)cn3)n2)cc2c1CCN(C)C2 [Example 285, 1-(3-amino-6-(2,5-dimethyl-1,2,3,4-tetrahydroisoquinolin-7-yl)pyrazin-2-yl)-N-(2-(pyrrolidin-1-yl)ethyl)-1H-pyrazole-4-carboxamide] | 14
Cc1cc(-c2cnc(N)c(-n3cc(C(=O)N(C)c4ccccc4Cl)cn3)n2)cc2c1CCN(C)C2 [Example 286, 1-(3-amino-6-(2,5-dimethyl-1,2,3,4-tetrahydroisoquinolin-7-yl)pyrazin-2-yl)-N-(2-chlorophenyl)-N-methyl-1H-pyrazole-4-carboxamide] | 3.6
Cc1cc(-c2cnc(N)c(C(=O)Nc3ccncc3)n2)cc2c1CCN(C)C2 [Example 287, 3-amino-6-(2,5-dimethyl-1,2,3,4-tetrahydroisoquinolin-7-yl)-N-(pyridin-4-yl)pyrazine-2-carboxamide] | 25
Cc1cc(-c2cnc(N)c(Oc3cnn(C(C)c4cccnc4)c3)n2)cc2c1CCN(C)C2 (centres unmarked) [Example 288, 5-(2,5-dimethyl-1,2,3,4-tetrahydroisoquinolin-7-yl)-3-(1-(1-(pyridin-3-yl)ethyl)-1H-pyrazol-4-yloxy)pyrazin-2-amine] | 17
CNc1cc(-c2cnc(N)c(-n3cc(C(=O)N(C)C)cn3)n2)cc2c1CCN(C)C2 [Example 289, 1-(3-amino-6-(2-methyl-5-(methylamino)-1,2,3,4-tetrahydroisoquinolin-7-yl)pyrazin-2-yl)-N,N-dimethyl-1H-pyrazole-4-carboxamide] | 9.7
CN1CCc2c(cc(-c3cnc(N)c(-n4cc(C(=O)N(C)C)cn4)n3)cc2NC2CC2)C1 [Example 290, 1-(3-amino-6-(5-(cyclopropylamino)-2-methyl-1,2,3,4-tetrahydroisoquinolin-7-yl)pyrazin-2-yl)-N,N-dimethyl-1H-pyrazole-4-carboxamide] | 16
CCOCCN(C)C(=O)c1cnn(-c2nc(-c3cc(C)c4c(c3)CN(C)CC4)cnc2N)c1 [Example 292, 1-(3-amino-6-(2,5-dimethyl-1,2,3,4-tetrahydroisoquinolin-7-yl)pyrazin-2-yl)-N-(2-ethoxyethyl)-N-methyl-1H-pyrazole-4-carboxamide] | 5.3
Cc1cc(-c2cnc(N)c(Oc3cnn(CC4CCOCC4)c3)n2)cc2c1CCN(C)C2 [Example 293, 5-(2,5-dimethyl-1,2,3,4-tetrahydroisoquinolin-7-yl)-3-(1-((tetrahydro-2H-pyran-4-yl)methyl)-1H-pyrazol-4-yloxy)pyrazin-2-amine] | 37
CCS(=O)(=O)N1CC(n2cc(Oc3nc(-c4cc(C)c5c(c4)CN(C)CC5)cnc3N)cn2)C1 [Example 295, 5-(2,5-dimethyl-1,2,3,4-tetrahydroisoquinolin-7-yl)-3-(1-(1-(ethylsulfonyl)azetidin-3-yl)-1H-pyrazol-4-yloxy)pyrazin-2-amine] | 36
Cc1cc(-c2cnc(N)c(Oc3cnn(C4CN(S(=O)(=O)c5ccccc5)C4)c3)n2)cc2c1CCN(C)C2 [Example 296, 5-(2,5-dimethyl-1,2,3,4-tetrahydroisoquinolin-7-yl)-3-(1-(1-(phenylsulfonyl)azetidin-3-yl)-1H-pyrazol-4-yloxy)pyrazin-2-amine] | 67
Cc1cc(-c2cnc(N)c(-n3cc(C(=O)NCC4CC4)cn3)n2)cc2c1CCN(C)C2 [Example 297, 1-(3-amino-6-(2,5-dimethyl-1,2,3,4-tetrahydroisoquinolin-7-yl)pyrazin-2-yl)-N-(cyclopropylmethyl)-1H-pyrazole-4-carboxamide] | 6.6
Cc1cc(-c2cnc(N)c(-n3cc(C(=O)NC4CC4)cn3)n2)cc2c1CCN(C)C2 [Example 298, 1-(3-amino-6-(2,5-dimethyl-1,2,3,4-tetrahydroisoquinolin-7-yl)pyrazin-2-yl)-N-cyclopropyl-1H-pyrazole-4-carboxamide] | 4.2
Cc1cc(-c2cnc(N)c(-n3cc(C(=O)NCCN4CCOCC4)cn3)n2)cc2c1CCN(C)C2 [Example 299, 1-(3-amino-6-(2,5-dimethyl-1,2,3,4-tetrahydroisoquinolin-7-yl)pyrazin-2-yl)-N-(2-morpholinoethyl)-1H-pyrazole-4-carboxamide] | 8.9
Cc1cc(-c2cnc(N)c(-n3cc(C(=O)NCc4ccc(F)cc4Cl)cn3)n2)cc2c1CCN(C)C2 [Example 300, 1-(3-amino-6-(2,5-dimethyl-1,2,3,4-tetrahydroisoquinolin-7-yl)pyrazin-2-yl)-N-(2-chloro-4-fluorobenzyl)-1H-pyrazole-4-carboxamide] | 7.5
Cc1cc(-c2cnc(N)c(-n3cc(C(=O)N(C)CCN4CCCC4)cn3)n2)cc2c1CCN(C)C2 [Example 302, 1-(3-amino-6-(2,5-dimethyl-1,2,3,4-tetrahydroisoquinolin-7-yl)pyrazin-2-yl)-N-methyl-N-(2-(pyrrolidin-1-yl)ethyl)-1H-pyrazole-4-carboxamide] | 54
Cc1cc(-c2cnc(N)c(Oc3cnn(CC(F)(F)F)c3)n2)cc2c1CCN(C)C2 [Example 303, 5-(2,5-dimethyl-1,2,3,4-tetrahydroisoquinolin-7-yl)-3-((1-(2,2,2-trifluoroethyl)-1H-pyrazol-4-yl)oxy)pyrazin-2-amine] | 16
